From ChEMBL document CHEMBL1141771, “p-Aminoacetophenonic acids produced by a mangrove endophyte: Streptomyces griseus subsp” (J Nat Prod, 2005)
Activity calls are given as the source filed them.

Experiments:
HeLa = experiment: Cytotoxicity against human HeLa cells; format: functional, cell-based
[1] = Activity of hydroxysteroid dehydrogenase
K562 = experiment: Cytotoxicity against human K562 cells; format: functional, cell-based
[2] = Activity of peroxidase
L929 = experiment: Cytotoxicity against mouse L929 cells; format: functional, cell-based

Measured: Activity

CC(/C=C/C(=O)c1ccc(N)cc1)CC(C)C(=O)O (stereo not given)
inactive: all assays above

C/C(=C\C(C)CC(C)C(O)CC(=O)c1ccc(N)cc1)C(=O)O (stereo not given)
inactive: all assays above

CC(O)C(/C=C/C=C/C(=O)O)C(C)CC(C)C(O)CC(=O)c1ccc(N)cc1 (stereo not given)
inactive: all assays above
